# Assay results: the supplement of paper PMC10307832
# Assays:
# Assay in all cases: relative viability (nuclei count vs DMSO), 5 days (fraction); higher = more cells survive
# [1] = system: HCC-44
# Procedure, shortened: (§1)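 Lung cancer cell lines, seeded in 1536-well plates, were treated the following day by pin tool with a single drug or with five library-drug doses (not always all listed) in √10 steps on top of a fixed anchor-drug dose. Cells were fixed and nuclei stained in one step after 5 days, and nuclei were counted. Relative viability is the nuclei count for treated wells divided by that for vehicle wells, reported as medians of duplicate plates.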
# [2] = system: HCC-827
# Procedure, shortened: as §1
# [3] = system: NCI-H650
# Procedure, shortened: as §1
# [4] = system: EKVX
# Procedure, shortened: as §1
# [5] = system: SW 1573
# Procedure, shortened: as §1
# [6] = system: NCI-H1975
# Procedure, shortened: as §1
# [7] = system: NCI-H1666
# Procedure, shortened: as §1
# [8] = system: H3255
# Procedure, shortened: as §1
# [9] = system: NCI-H2085
# Procedure, shortened: as §1
# [10] = system: COR-L 105
# Procedure, shortened: as §1
# [11] = system: LU99A
# Procedure, shortened: as §1
# [12] = system: BEN
# Procedure, shortened: as §1
# [13] = system: NCI-H2170
# Procedure, shortened: as §1
# [14] = system: 201T
# Procedure, shortened: as §1
# [15] = system: NCI-H1437
# Procedure, shortened: as §1
# [16] = system: PC-3 [JPC-3]
# Procedure, shortened: as §1
# [17] = system: NCI-H2087
# Procedure, shortened: as §1
# [18] = system: LCLC-97TM1
# Procedure, shortened: as §1
# [19] = system: EPLC-272H
# Procedure, shortened: as §1
# [20] = system: NCI-H647
# Procedure, shortened: as §1
# [21] = system: LOU-NH91
# Procedure, shortened: as §1
structure (smiles),measurement,setting,value
O=c1cc(-c2cccc3c2Sc2ccccc2S3)oc(N2CCOCC2)c1 + C[C@@H](Oc1cc(-c2cnn(C3CCNCC3)c2)cnc1N)c1c(Cl)ccc(F)c1Cl [Crizotinib] (partner 1 µM),relative viability,[1]; first compound 0.08 µM,0.811
same,relative viability,[1]; first compound 0.253 µM,0.886
same,relative viability,[1]; first compound 0.8 µM,0.83
same,relative viability,[1]; first compound 2.53 µM,0.859
same,relative viability,[1]; first compound 8 µM,0.854
same,relative viability,[2]; first compound 0.08 µM,0.943
same,relative viability,[2]; first compound 0.253 µM,0.921
same,relative viability,[2]; first compound 0.8 µM,0.997
same,relative viability,[2]; first compound 2.53 µM,0.8
same,relative viability,[2]; first compound 8 µM,0.967
same,relative viability,[3]; first compound 0.08 µM,0.702
same,relative viability,[3]; first compound 0.253 µM,0.606
same,relative viability,[3]; first compound 0.8 µM,0.74
same,relative viability,[3]; first compound 2.53 µM,0.58
same,relative viability,[3]; first compound 8 µM,0.694
same,relative viability,[4]; first compound 0.08 µM,0.896
same,relative viability,[4]; first compound 0.253 µM,1.1
same,relative viability,[4]; first compound 0.8 µM,0.971
same,relative viability,[4]; first compound 2.53 µM,1.04
same,relative viability,[4]; first compound 8 µM,1.04
same,relative viability,[5]; first compound 0.08 µM,0.76
same,relative viability,[5]; first compound 0.253 µM,0.852
same,relative viability,[5]; first compound 0.8 µM,0.886
same,relative viability,[5]; first compound 2.53 µM,0.794
same,relative viability,[5]; first compound 8 µM,0.849
same,relative viability,[6]; first compound 0.08 µM,1.01
same,relative viability,[6]; first compound 0.253 µM,1.02
same,relative viability,[6]; first compound 0.8 µM,0.922
same,relative viability,[6]; first compound 2.53 µM,0.837
same,relative viability,[6]; first compound 8 µM,0.98
same,relative viability,[7]; first compound 0.08 µM,0.911
same,relative viability,[7]; first compound 0.253 µM,1.04
same,relative viability,[7]; first compound 0.8 µM,0.922
same,relative viability,[7]; first compound 2.53 µM,0.916
same,relative viability,[7]; first compound 8 µM,0.857
same,relative viability,[8]; first compound 0.08 µM,0.89
same,relative viability,[8]; first compound 0.253 µM,0.992
same,relative viability,[8]; first compound 0.8 µM,1.02
same,relative viability,[8]; first compound 2.53 µM,0.747
same,relative viability,[8]; first compound 8 µM,1.26
same,relative viability,[9]; first compound 0.08 µM,0.913
same,relative viability,[9]; first compound 0.253 µM,1.06
same,relative viability,[9]; first compound 0.8 µM,0.939
same,relative viability,[9]; first compound 2.53 µM,0.832
same,relative viability,[9]; first compound 8 µM,0.93
same,relative viability,[10]; first compound 0.08 µM,0.833
same,relative viability,[10]; first compound 0.253 µM,0.706
same,relative viability,[10]; first compound 0.8 µM,0.752
same,relative viability,[10]; first compound 2.53 µM,0.798
same,relative viability,[10]; first compound 8 µM,1.07
same,relative viability,[11]; first compound 0.08 µM,0.552
same,relative viability,[11]; first compound 0.253 µM,0.574
same,relative viability,[11]; first compound 0.8 µM,0.932
same,relative viability,[11]; first compound 2.53 µM,0.596
same,relative viability,[11]; first compound 8 µM,0.701
same,relative viability,[12]; first compound 0.08 µM,0.925
same,relative viability,[12]; first compound 0.253 µM,1.02
same,relative viability,[12]; first compound 0.8 µM,1.1
same,relative viability,[12]; first compound 2.53 µM,0.85
same,relative viability,[12]; first compound 8 µM,1.14
same,relative viability,[13]; first compound 0.08 µM,1.17
same,relative viability,[13]; first compound 0.253 µM,1.19
same,relative viability,[13]; first compound 0.8 µM,1.31
same,relative viability,[13]; first compound 2.53 µM,1.12
same,relative viability,[13]; first compound 8 µM,1.26
same,relative viability,[14]; first compound 0.08 µM,1
same,relative viability,[14]; first compound 0.253 µM,0.889
same,relative viability,[14]; first compound 0.8 µM,1
same,relative viability,[14]; first compound 2.53 µM,1.08
same,relative viability,[14]; first compound 8 µM,0.958
same,relative viability,[15]; first compound 0.08 µM,1.09
same,relative viability,[15]; first compound 0.253 µM,1.18
same,relative viability,[15]; first compound 0.8 µM,1.24
same,relative viability,[15]; first compound 2.53 µM,0.899
same,relative viability,[15]; first compound 8 µM,1.07
same,relative viability,[16]; first compound 0.08 µM,0.983
same,relative viability,[16]; first compound 0.253 µM,1.01
same,relative viability,[16]; first compound 0.8 µM,1.03
same,relative viability,[16]; first compound 2.53 µM,0.971
same,relative viability,[16]; first compound 8 µM,1.02
same,relative viability,[17]; first compound 0.08 µM,0.982
same,relative viability,[17]; first compound 0.253 µM,0.966
same,relative viability,[17]; first compound 0.8 µM,1.12
same,relative viability,[17]; first compound 2.53 µM,0.927
same,relative viability,[17]; first compound 8 µM,1.01
same,relative viability,[18]; first compound 0.08 µM,0.373
same,relative viability,[18]; first compound 0.253 µM,0.408
same,relative viability,[18]; first compound 0.8 µM,0.459
same,relative viability,[18]; first compound 2.53 µM,0.334
same,relative viability,[18]; first compound 8 µM,0.456
same,relative viability,[19]; first compound 0.08 µM,0.786
same,relative viability,[19]; first compound 0.253 µM,0.891
same,relative viability,[19]; first compound 0.8 µM,1.19
same,relative viability,[19]; first compound 2.53 µM,0.963
same,relative viability,[19]; first compound 8 µM,1.08
same,relative viability,[20]; first compound 0.08 µM,1.06
same,relative viability,[20]; first compound 0.253 µM,1.09
same,relative viability,[20]; first compound 0.8 µM,0.949
same,relative viability,[20]; first compound 2.53 µM,1.02
same,relative viability,[20]; first compound 8 µM,1.12
same,relative viability,[21]; first compound 0.08 µM,0.727
same,relative viability,[21]; first compound 0.253 µM,0.718
same,relative viability,[21]; first compound 0.8 µM,0.707
same,relative viability,[21]; first compound 2.53 µM,0.702
same,relative viability,[21]; first compound 8 µM,0.776
